Reference: patent publication US9051339B2, “Sulfur-containing bicyclic compound” (Astellas Pharma Inc., priority 2013, dated 2015)
Where a name gives a salt, the structure may show the parent alone.

Molecular target: T1, GABAB receptor (Mus musculus, UniProt Q80T41+Q9WV18)
T1 construct: a mouse brain cortex membrane (4 μg); tissue Japan SLC, Inc. (ddY mice); host or cells: mouse brain cortex membrane
Test: [35S]GTPγS binding test for PAM action, mouse brain cortical membrane
Format: biochemical
Conditions: 100 μM GABA = 100%; for EC50: concentration raising reaction rate from 20% with 0.3 μM GABA to 50%, mouse brain cortex membrane, read-out: Potency (PAM Potency of GABAB); for Emax: read-out: Efficacy (PAM Efficacy of GABAB)
Protocol: The function of the GABAB receptor of the compound of the present invention was evaluated using a [^35S] GTPγS binding test. This method is used for the detection of the PAM action of the compound on the GABAB receptor (Journal of Pharmacology and Experimental Therapeutics, 2003, vol. 307(1), p. 322-330; and Molecular Pharmacology, 2001, vol. 60(5), p. 963-971).
The mouse brain cortical membrane was prepared with reference to a method for preparing a rat brain membrane (European Journal of Pharmacology, 1990, vol. 187 (1), p. 27-38).
The cortex (about 30 g) was cut out of the brains of 90 ddY mice (Japan SLC, Inc.). An A buffer was added to the cortex (cortex/A buffer=about 1:3 (wt/vol)), and homogenized with a glass Teflon-lined homogenizer (Teflon: registered trademark) on ice. The homogenate was centrifuged (750 g, 10 min, 4° C.) and a supernatant was then obtained. An A buffer (90 mL) was added to pellets and homogenized on ice, and a supernatant (750 g, 10 min, 4° C.) was then obtained. By repeating this operation, the supernatant was collected.
The supernatant was centrifuged (18000 g, 15 min, 4° C.). Ultrapure water (54 mL) was added to the pellets, left to stand for 30 min on ice, and then centrifuged (39000 g, 20 min, 4° C.). The pellets were suspended in a KH buffer (54 mL), repeatedly frozen and thawed, and centrifuged (18000 g, 15 min) at 4° C. The buffer was added to the pellets and then frozen and thawed, and this operation was repeated until the centrifugation. By a Bradford method using a protein assay (Protein assay CBB solution; Nacalai Tesque, Inc.), a KH buffer suspension of the pellet was prepared at a protein concentration of 10 mg/mL.
The PAM action of the GABAB receptor in the mouse brain cortex of a test drug was evaluated. To each of wells of a 96-well microplate, a test drug diluted with a B buffer at each concentration (3 nM to 30 μM), a mouse brain cortex membrane (4 μg), [^35S] GTPγS (final concentration of 0.34 nM, Muromachi Yakuhin Co., Ltd.; Institute of Isotopes Co., Ltd.), GABA (final concentration of 0.3 μM; Sigma) were added in this order, followed by standing at room temperature for 1 hour. With a harvester (Filtermate, Perkin-Elmer, Inc.), the suspension was suction-filtered through a glass filter (UniFilter 96-well GF/B filter plates, Perkin-Elmer, Inc.). The glass filter was washed with a C buffer that had been ice-cooled. After drying the glass filter, a liquid scintillation cocktail (50 μL, MicroScinti-PS; PerkinElmer, Inc.) was added to each well. The amount of [^35S] GTPγS bound to the membrane was measured on a plate reader (TopCount, PerkinElmer, Inc.).
The maximum reaction rate of 100 μM GABA was taken as 100%. […] At a time when the test drug was not added, the concentration of the test drug that increased the reaction rate from 20% with 0.3 μM GABA to 50% was taken as a PAM Potency (μM) of the GABAB of the test drug. In the presence of 0.3 μM GABA, the maximum reaction rate of the effect on the GABAB receptor when the test drug was administered up to maximum 30 μM was taken as a PAM Efficacy (%) of the GABAB of the test drug.
The Potency and Efficacy of several representative Example Compounds of the present invention are shown in Table below (In the Table, Ex represents Example Compound No. The “Potency” represents the PAM Potency of GABAB of the test drug, and the “Efficacy” represents PAM Efficacy (%) of GABAB of the test drug. These shall apply hereinafter).

[1] = maximum reaction rate in presence of 0.3 μM GABA, test drug up to 30 μM

T1 sequence (Q9WV18 20-960): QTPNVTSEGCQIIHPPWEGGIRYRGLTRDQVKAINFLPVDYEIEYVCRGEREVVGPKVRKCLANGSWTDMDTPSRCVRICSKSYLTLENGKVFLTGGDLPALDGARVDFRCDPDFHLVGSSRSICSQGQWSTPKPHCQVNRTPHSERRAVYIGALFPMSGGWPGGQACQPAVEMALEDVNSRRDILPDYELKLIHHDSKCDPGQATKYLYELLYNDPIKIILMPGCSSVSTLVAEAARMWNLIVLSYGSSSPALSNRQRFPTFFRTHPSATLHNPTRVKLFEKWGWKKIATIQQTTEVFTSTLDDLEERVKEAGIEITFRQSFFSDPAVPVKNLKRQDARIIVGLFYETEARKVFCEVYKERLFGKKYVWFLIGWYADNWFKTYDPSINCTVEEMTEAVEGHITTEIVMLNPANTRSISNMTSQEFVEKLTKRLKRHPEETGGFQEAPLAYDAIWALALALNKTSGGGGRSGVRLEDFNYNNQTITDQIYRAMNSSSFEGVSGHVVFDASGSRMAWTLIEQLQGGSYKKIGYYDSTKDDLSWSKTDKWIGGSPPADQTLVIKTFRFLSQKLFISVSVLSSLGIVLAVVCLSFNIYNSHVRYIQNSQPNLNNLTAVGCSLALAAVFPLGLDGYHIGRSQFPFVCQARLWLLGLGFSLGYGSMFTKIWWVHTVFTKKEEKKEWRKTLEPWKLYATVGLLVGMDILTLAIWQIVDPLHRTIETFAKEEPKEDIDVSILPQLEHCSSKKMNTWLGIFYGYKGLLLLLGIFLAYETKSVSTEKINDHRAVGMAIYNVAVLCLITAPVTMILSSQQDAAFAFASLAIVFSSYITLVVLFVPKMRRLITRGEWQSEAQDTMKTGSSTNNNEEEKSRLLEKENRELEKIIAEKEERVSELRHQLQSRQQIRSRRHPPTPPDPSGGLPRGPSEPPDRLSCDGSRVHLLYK
T1 sequence (Q80T41 41-940): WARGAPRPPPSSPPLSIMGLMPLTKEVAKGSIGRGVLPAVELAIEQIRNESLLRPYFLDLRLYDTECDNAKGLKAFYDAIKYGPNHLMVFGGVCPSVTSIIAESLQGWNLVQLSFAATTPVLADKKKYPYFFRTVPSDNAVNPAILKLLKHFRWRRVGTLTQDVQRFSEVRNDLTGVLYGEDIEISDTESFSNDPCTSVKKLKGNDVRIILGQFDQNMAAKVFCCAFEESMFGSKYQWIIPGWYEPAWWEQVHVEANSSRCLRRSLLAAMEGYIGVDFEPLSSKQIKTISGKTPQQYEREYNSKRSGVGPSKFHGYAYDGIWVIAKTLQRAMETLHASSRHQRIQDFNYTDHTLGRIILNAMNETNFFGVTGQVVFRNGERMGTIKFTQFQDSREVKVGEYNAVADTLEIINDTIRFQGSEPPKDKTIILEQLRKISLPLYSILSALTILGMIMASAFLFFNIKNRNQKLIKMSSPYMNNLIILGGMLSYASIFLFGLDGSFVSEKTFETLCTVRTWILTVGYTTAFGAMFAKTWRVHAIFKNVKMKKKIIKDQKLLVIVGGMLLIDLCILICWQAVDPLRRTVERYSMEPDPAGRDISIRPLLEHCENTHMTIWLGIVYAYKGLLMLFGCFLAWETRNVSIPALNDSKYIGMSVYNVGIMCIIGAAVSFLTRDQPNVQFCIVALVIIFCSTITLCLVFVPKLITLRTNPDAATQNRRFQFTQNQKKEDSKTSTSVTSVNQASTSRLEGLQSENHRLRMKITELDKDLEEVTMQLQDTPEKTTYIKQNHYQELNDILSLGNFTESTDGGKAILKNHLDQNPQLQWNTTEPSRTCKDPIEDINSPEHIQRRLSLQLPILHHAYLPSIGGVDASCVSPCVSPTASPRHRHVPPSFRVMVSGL

SMILES	EC50 [nM]	Efficacy (PAM Efficacy of GABAB) [1] [%]	Emax [1] [%]
Cc1nc(CN2CC[C@@H](O)[C@H](O)C2)c2cc(C3CCC(C)(C)CC3)sc2n1 (single isomer, unassigned) [Ex31-1, trans-1-{[6-(4,4-dimethylcyclohexyl)-2-methylthieno[2,3-d]pyrimidin-4-yl]methyl}piperidine-3,4-diol]	180	191	
Cc1nc(CN2CCC(O)(CO)CC2)c2cc(C3CCC(C)(C)CC3)sc2n1 [Ex4]	200		161
Cc1nc(CN2CC[C@@H](O)[C@H](O)C2)c2cc(C3CCC(C)(C)CC3)sc2n1 [Ex5]	240		176
Cc1nc(CN2CCC(CO)(CO)CC2)c2cc(C3CCC(C)(C)CC3)sc2n1 [Ex7]	240		139
Cc1nc(CN2CCC(O)(C(F)(F)F)CC2)c2cc(C3CCC(C)(C)CC3)sc2n1 [Ex12]	230		377
Cc1nc(CN2C[C@@H](C)O[C@@H](C)C2)c2cc(C3CCC(C)(C)CC3)sc2n1 [Ex39]	420		165
Cc1nc(CN2CCOC(C)(C)C2)c2cc(C3CCC(C)(C)CC3)sc2n1 [Ex40]	530		203
Cc1nc(CN2CCC3(CC2)CC3)c2cc(C3CCC(C)(C)CC3)sc2n1 [Ex43]	260		118
Cc1nc(CN2CCC(C)(C)CC2)c2cc(C3CCC(C)(C)CC3)sc2n1 [Ex44]	270		119
Cc1nc(CN2CCCC(C)(C)C2)c2cc(C3CCC(C)(C)CC3)sc2n1 [Ex45]	440		134
COC1(CO)CCN(Cc2nc(C)nc3sc(C4CCC(C)(C)CC4)cc23)CC1 [Ex46]	180		188
Cc1nc(CN2CCC(C)(O)CC2)c2cc(C3CCC(C)(C)CC3)sc2n1 [Ex47]	120		240
CCC1(O)CCN(Cc2nc(C)nc3sc(C4CCC(C)(C)CC4)cc23)CC1 [Ex48]	260		238
COCC1(O)CCN(Cc2nc(C)nc3sc(C4CCC(C)(C)CC4)cc23)CC1 [Ex50]	540		222
Cc1nc(CN2CCC(O)C(F)C2)c2cc(C3CCC(C)(C)CC3)sc2n1 (stereo not drawn) [Ex51]	150		249
Cc1nc(CN2CCC(O)CC2)c2cc(C3CCC(C)(C)CC3)sc2n1 [Ex52, 1-{[6-(4,4-dimethylcyclohexyl)-2-methylthieno[2,3-d]pyrimidin-4-yl]methyl}piperidin-4-ol hydrochloride]	170		259
Cc1nc(CN2CC[C@@H](O)[C@@H](O)C2)c2cc(C3CCC(C)(C)CC3)sc2n1 [Ex54]	320		88
Cc1nc(CN2CCC(F)(F)CC2)c2cc(C3CCC(C)(C)CC3)sc2n1 [Ex55]	250		175

SMILES	EC50 [nM]	Efficacy (PAM Efficacy of GABAB) [1] [%]	Emax [1] [%]
Cc1nc(CN2CCC(C(F)F)CC2)c2cc(C3CCC(C)(C)CC3)sc2n1 [Ex61]	240		160
Cc1nc(CN2CCC[C@@H](O)C2)c2cc(C3CCC(C)(C)CC3)sc2n1 [Ex72]	89		289
Cc1nc(CN2CCC[C@H](O)C2)c2cc(C3CCC(C)(C)CC3)sc2n1 [Ex73]	85		272
Cc1nc(CN2CCSCC2)c2cc(C3CCC(C)(C)CC3)sc2n1 [Ex74]	190		244
Cc1nc(CN2CCOCC2(C)C)c2cc(C3CCC(C)(C)CC3)sc2n1 [Ex79]	46		230
Cc1nc(CN2CCOC[C@H]2CO)c2cc(C3CCC(C)(C)CC3)sc2n1 [Ex101]	380		134
Cc1nc(CN2CCOC[C@@H]2CO)c2cc(C3CCC(C)(C)CC3)sc2n1 [Ex102]	400		127
Cc1nc(CN2CC[C@@H](O)[C@](C)(O)C2)c2cc(C3CCC(C)(C)CC3)sc2n1 [Ex104]	79		218
Cc1nc(CN2CCS(=O)(=O)CC2)c2cc(C3CCC4(CC3)CC4)sc2n1 [Ex108, 4-[(1,1-dioxidothiomorpholin-4-yl)methyl]-2-methyl-6-(spiro[2.5]octa-6-yl)thieno[2,3-d]pyrimidine]	200		176
Cc1nc(CN2CCC(O)C(CO)C2)c2cc(C3CCC(C)(C)CC3)sc2n1 (stereo not drawn) [Ex127]	110		338
Cc1nc(CN2CCOCC2)c2cc(C3CCC(C)(C)CC3)sc2n1 [Ex132]	150		218
Cc1nc(CN2CCC(O)CC2(C)C)c2cc(C3CCC(C)(C)CC3)sc2n1 (stereo not drawn) [Ex142]	7.1		214
Cc1nc(CN2CC[C@@H](O)[C@@H](F)C2)c2cc(C3CCC(C)(C)CC3)sc2n1 [Ex143]	1200		182
Cc1nc(CN2CC[C@H](O)[C@@H](F)C2)c2cc(C3CCC(C)(C)CC3)sc2n1 [Ex144]	310		182
Cc1nc(CN2CCC(O)C(C)(C)C2)c2cc(C3CCC(C)(C)CC3)sc2n1 (stereo not drawn) [Ex146]	100		258
Cc1nc(CN2CCN(C)CC2(C)C)c2cc(C3CCC(C)(C)CC3)sc2n1 [Ex151]	120		168
CC(=O)N1CCN(Cc2nc(C)nc3sc(C4CCC(C)(C)CC4)cc23)C(C)(C)C1 [Ex153, 1-(4-{[6-(4,4-dimethylcyclohexyl)-2-methylthieno[2,3-d]pyrimidin-4-yl]methyl}-3,3-dimethylpiperazin-1-yl)ethanone hydrochloride]	59		180
Cc1nc(CN2CCN(C(=O)CO)CC2(C)C)c2cc(C3CCC(C)(C)CC3)sc2n1 [Ex155, 1-(4-{[6-(4,4-dimethylcyclohexyl)-2-methylthieno[2,3-d]pyrimidin-4-yl]methyl}-3,3-dimethylpiperazin-1-yl)-2-hydroxyethanone]	46		159
